# Measurements taken from patent US6864245B2, “Biocompatible poly-β-1→4-N-acetylglucosamine” (priority 1993, dated 2005).
# Values joined by “and” are separate entries in the source; they are usually repeats but may differ in a detail not shown here. Equal values may be shown once. Read-outs that look alike come from different tables or passages of the source.
# Test system: HT29 colon tumors
# Details: Intravenous Injection, daily
compound,measurement,setting,value
"O=c1[nH]cc(F)c(=O)[nH]1 [5′-FU, 5′-fluorouracil]",% Change,High Dose,−67.0%
same,Comments (death),High Dose,Died day 13
same,Tumor Volume Post-treatment,High Dose,132 mm^3
same,Tumor Volume Pre-Treatment,High Dose,402 mm^3
same,Comments (death),Low Dose,Died day 13
same,Tumor Volume Post-treatment,Low Dose,703 mm^3 and 402 mm^3
same,Tumor Volume Pre-Treatment,Low Dose,402 mm^3
